In this assay the target is T1, WT E. coli PNP (Escherichia coli, UniProt P0ABP8).
T1 construct: made in house
T1 sequence (P0ABP8 2-239 limits assumed): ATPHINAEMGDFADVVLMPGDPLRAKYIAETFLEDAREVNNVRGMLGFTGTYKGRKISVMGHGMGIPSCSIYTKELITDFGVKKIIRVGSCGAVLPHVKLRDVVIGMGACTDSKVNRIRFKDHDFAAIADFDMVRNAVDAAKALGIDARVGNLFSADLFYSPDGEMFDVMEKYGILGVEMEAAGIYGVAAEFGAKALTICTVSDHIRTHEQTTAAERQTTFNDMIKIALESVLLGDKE
Briefly: Fluorescence titrations with phosphate. The note with it: three-binding-site model, 25 °C. The procedure: All experiments were carried out on the Perkin-Elmer LS55 spectrofluorimeter. Fluorescence spectra were registered using in each case (protein or protein–ligand complex) several excitation wavelengths. Differential spectra were calculated by subtracting spectrum of a protein from the spectrum of the appropriate complex. The negative differential fluorescence intensity means that a decrease of fluorescence upon complex formation is observed. Titrations of the enzyme with phosphate were registered using several excitation and observation wavelengths combinations. When selecting specific wavelengths for such a combination, two criteria were used: (1) the overall change in the fluorescence signal and (2) the complexity of the shape of the titration as the analysis of the multi-phasic curves is more explicit than a uni-phasic curve analysis.
Path length for the excitation was 2 mm and for the emission was 5 mm (half of the cuvette dimensions). A continuous stirring was used during titrations. All measurements were performed at 25 °C. […]
Fluorescence intensity of the WT protein is stable over time, but in the case of the Y160W mutant a slight quenching of fluorescence is observed during titration, which typically lasted about 30 min as the time between each point in the titration was 1 min. Furthermore, adding phosphate during titration stabilises the intrinsic fluorescence of the protein. […] Thus corrected binding curves, F^cor([Pi]), are given by the following equation, in which Fn([Pi]) is the fluorescence intensity measured for the phosphate concentration [Pi], and n is the number of a given titration point in the particular titration:4 FncorPi=FnPi+∑m=1naPim
To check its influence on the intrinsic protein fluorescence, titrations with NaCl were performed, giving dependence F(I). […] Titration curves of the WT protein with phosphate were therefore measured up to 100 mM ionic strength of solution, which is enough to observe a plateau. […] Both F^obs([Pi]) and F(I) were corrected for the time dependent fluorescence quenching, according to Eq. (4), prior to the F^bind([Pi]) calculation. […]

Molecules are shown by their SMILES. Like-named read-outs stand apart in the source and are kept apart here.

Regarding `O=P(O)(O)O` [Pi, Orthophosphate], the Kd reads like this: (50 mM Tris/HCl pH 7.6, read-out: Kd1 ± SD) 4.4 µM; (50 mM Tris/HCl pH 7.6, read-out: Kd2 ± SD) 84 µM; (50 mM Tris/HCl pH 7.6, read-out: Kd3 ± SD) 1770 µM.

Values taken from PMC8160210, “Single tryptophan Y160W mutant of homooligomeric E. coli purine nucleoside phosphorylase implies that dimers forming the hexamer are functionally not equivalent” (Scientific Reports, 2021).
